Experimental data reported in ChEMBL document CHEMBL1201862, “PubChem BioAssay data set” (2004).
Activity calls are given as the source filed them.

What was measured:
[1] = Luminescence Cell-Based Dose Retest to Confirm Inhibitors of Cancer Stem Cells. [Related pubchem assays (depositor defined):AID2717, AID2721]; format: functional; details: Homo sapiens
[2] = cytotoxicity in HMLE control line with eGFP shRNA, dose response, counter-screen for HMLE_sh_ECad selective toxicity project, cell-based, HMLE_sh_eGFP, luminescence (AID 463074); format: functional, Homo sapiens;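 further: HMLE human mammary epithelial cells expressing control shRNA against eGFP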
[3] = target: T1, Latent membrane protein 1 (Human herpesvirus 4 (strain B95-8), UniProt P03230); assay: TES1-eGFP NF-kB reporter inhibition versus Tet-On dsRED, dose response, selectivity assay for LMP1 NF-kB inhibitor project, imaging, HEK293T, dual-color eGFP/dsRED, cherry-picks (AID 588398); format: functional, cell-based
T1 sequence (P03230 whole entry): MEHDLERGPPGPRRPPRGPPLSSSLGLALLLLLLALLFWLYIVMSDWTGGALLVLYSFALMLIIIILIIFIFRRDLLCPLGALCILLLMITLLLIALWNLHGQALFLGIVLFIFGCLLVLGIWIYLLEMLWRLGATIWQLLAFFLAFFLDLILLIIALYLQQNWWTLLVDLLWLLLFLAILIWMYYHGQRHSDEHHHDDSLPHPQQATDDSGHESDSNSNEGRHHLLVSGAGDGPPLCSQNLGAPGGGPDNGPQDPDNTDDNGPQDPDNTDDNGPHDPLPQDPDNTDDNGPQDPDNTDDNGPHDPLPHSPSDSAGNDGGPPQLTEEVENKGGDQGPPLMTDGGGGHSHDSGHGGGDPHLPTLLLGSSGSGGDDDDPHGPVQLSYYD

[4] = target: SWI/SNF-related matrix-associated actin-dependent regulator of chromatin subfamily A member 2 (Homo sapiens, UniProt P51531); assay: Luminescence-based cell-based high throughput dose response assay to identify activators of the function of SWI/SNF related, matrix associated, actin dependent regulator of chromatin, subfamily a, member 2 (SMARCA2, BRM).; format: functional
[5] = Counterscreen for activators of the function of SWI/SNF related, matrix associated, actin dependent regulator of chromatin, subfamily a, member 2 (SMARCA2, BRM): Luminescence-based cell-based high throughput dose response assay to identify non-selective compounds using the VP16 reporter assay.; format: functional
[6] = test system: HEK293; assay: cells; format: functional, cell-based; details: Homo sapiens
[7] = target: T2, Nuclear receptor subfamily 0 group B member 1 (Homo sapiens, UniProt P51843); assay: Luminescence-based cell-based high throughput dose response assay for inhibitors of the orphan nuclear receptor subfamily 0, group B, member 1 (DAX1; NR0B1). [Related pubchem assays (depositor defined):AID504766, AID504790]; format: functional
T2 sequence (P51843 whole entry): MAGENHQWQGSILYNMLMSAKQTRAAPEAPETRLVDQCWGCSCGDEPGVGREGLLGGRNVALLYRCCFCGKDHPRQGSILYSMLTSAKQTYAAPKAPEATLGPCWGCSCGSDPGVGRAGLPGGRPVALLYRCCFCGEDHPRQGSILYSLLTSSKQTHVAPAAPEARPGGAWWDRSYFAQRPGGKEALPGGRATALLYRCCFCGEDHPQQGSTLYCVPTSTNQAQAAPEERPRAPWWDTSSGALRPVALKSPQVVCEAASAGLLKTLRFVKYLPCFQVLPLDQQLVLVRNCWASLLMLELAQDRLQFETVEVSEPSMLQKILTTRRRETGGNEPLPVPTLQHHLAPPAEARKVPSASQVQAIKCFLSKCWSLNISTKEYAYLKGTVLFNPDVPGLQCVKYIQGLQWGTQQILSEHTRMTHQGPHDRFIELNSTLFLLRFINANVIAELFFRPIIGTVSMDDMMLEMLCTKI

[8] = target: T3, Phospholipase D1 (Homo sapiens, UniProt Q13393); assay: PLD1 inhibitor potency in cells, dose response (AID 602151); format: functional;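 further: cellular PLD1 assay in Calu-1 cells stimulated with PMA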
T3 sequence (Q13393 whole entry): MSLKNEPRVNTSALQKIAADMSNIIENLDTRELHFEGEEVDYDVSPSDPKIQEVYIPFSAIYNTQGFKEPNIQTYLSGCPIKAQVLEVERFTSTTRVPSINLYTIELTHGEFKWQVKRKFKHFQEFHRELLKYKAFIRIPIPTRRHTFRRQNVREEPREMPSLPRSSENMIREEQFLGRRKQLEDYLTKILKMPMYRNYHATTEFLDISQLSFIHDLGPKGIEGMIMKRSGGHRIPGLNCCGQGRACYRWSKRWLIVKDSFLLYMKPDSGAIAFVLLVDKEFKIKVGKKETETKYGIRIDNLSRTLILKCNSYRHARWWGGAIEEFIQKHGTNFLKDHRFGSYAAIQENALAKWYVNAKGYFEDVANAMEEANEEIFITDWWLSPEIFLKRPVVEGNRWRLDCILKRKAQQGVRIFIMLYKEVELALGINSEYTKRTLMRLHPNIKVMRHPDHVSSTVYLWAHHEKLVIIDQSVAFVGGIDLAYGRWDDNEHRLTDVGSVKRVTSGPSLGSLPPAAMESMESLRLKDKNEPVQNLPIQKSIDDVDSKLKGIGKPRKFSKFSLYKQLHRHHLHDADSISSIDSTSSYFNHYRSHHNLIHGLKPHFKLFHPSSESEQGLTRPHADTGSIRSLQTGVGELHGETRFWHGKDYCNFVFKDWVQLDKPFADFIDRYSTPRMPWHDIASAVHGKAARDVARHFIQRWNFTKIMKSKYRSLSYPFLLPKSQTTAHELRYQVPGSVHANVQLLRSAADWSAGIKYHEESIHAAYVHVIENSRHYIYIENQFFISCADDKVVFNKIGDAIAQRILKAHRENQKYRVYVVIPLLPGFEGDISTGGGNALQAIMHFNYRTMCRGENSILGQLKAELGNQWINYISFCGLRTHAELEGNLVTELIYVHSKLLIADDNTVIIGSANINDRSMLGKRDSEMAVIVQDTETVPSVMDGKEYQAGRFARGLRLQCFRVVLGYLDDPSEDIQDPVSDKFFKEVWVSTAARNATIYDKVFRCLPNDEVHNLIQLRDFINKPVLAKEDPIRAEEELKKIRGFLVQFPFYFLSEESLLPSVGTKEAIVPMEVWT

[9] = target: Phospholipase D2 (Homo sapiens, UniProt O14939); assay: PLD2 inhibitor potency in cells, dose response (AID 602147); format: functional;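 further: cellular assay in HEK293 cells overexpressing GFP-tagged PLD2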
[10] = target: Beta-2 adrenergic receptor (Homo sapiens, UniProt P07550); assay: beta2AR agonists driving receptor internalization, dose response, cell-based, FAP fluorogen, flow cytometry, cherry pick 1 (AID 588763); format: functional
[11] = target: Dual specificity protein kinase CLK1 (Homo sapiens, UniProt P49759); assay: CLK1 kinase inhibitors, off-target check, dose response, selectivity assay for Dyrk1A inhibitor project, biochemical, cherry-picked samples (AID 588811)
Dual specificity protein kinase CLK1, sequence (P49759 whole entry): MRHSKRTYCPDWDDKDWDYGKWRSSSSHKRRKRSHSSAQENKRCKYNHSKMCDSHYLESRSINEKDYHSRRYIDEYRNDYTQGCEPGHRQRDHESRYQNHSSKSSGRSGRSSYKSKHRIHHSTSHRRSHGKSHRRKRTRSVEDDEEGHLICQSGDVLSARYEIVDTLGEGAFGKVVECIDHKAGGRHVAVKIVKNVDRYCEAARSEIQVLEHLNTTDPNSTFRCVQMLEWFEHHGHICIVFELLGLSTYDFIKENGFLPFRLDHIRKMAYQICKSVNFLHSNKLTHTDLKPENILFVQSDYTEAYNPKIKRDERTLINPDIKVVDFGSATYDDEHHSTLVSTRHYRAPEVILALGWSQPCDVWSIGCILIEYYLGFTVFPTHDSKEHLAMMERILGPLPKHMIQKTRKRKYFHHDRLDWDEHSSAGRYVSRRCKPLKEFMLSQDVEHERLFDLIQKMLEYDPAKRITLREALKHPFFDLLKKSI

Beta-2 adrenergic receptor, sequence (P07550 whole entry): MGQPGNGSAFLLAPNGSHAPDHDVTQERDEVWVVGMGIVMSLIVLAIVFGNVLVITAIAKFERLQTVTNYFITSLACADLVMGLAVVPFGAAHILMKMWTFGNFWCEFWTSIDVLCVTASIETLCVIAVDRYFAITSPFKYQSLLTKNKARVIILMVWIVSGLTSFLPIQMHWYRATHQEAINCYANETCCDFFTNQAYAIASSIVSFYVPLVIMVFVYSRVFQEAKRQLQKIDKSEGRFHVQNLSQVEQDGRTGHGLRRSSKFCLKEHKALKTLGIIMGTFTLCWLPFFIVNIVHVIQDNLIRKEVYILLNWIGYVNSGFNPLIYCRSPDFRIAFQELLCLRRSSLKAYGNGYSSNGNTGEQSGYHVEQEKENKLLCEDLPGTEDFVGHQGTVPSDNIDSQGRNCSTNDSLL
SWI/SNF-related matrix-associated actin-dependent regulator of chromatin subfamily A member 2, sequence (P51531 whole entry): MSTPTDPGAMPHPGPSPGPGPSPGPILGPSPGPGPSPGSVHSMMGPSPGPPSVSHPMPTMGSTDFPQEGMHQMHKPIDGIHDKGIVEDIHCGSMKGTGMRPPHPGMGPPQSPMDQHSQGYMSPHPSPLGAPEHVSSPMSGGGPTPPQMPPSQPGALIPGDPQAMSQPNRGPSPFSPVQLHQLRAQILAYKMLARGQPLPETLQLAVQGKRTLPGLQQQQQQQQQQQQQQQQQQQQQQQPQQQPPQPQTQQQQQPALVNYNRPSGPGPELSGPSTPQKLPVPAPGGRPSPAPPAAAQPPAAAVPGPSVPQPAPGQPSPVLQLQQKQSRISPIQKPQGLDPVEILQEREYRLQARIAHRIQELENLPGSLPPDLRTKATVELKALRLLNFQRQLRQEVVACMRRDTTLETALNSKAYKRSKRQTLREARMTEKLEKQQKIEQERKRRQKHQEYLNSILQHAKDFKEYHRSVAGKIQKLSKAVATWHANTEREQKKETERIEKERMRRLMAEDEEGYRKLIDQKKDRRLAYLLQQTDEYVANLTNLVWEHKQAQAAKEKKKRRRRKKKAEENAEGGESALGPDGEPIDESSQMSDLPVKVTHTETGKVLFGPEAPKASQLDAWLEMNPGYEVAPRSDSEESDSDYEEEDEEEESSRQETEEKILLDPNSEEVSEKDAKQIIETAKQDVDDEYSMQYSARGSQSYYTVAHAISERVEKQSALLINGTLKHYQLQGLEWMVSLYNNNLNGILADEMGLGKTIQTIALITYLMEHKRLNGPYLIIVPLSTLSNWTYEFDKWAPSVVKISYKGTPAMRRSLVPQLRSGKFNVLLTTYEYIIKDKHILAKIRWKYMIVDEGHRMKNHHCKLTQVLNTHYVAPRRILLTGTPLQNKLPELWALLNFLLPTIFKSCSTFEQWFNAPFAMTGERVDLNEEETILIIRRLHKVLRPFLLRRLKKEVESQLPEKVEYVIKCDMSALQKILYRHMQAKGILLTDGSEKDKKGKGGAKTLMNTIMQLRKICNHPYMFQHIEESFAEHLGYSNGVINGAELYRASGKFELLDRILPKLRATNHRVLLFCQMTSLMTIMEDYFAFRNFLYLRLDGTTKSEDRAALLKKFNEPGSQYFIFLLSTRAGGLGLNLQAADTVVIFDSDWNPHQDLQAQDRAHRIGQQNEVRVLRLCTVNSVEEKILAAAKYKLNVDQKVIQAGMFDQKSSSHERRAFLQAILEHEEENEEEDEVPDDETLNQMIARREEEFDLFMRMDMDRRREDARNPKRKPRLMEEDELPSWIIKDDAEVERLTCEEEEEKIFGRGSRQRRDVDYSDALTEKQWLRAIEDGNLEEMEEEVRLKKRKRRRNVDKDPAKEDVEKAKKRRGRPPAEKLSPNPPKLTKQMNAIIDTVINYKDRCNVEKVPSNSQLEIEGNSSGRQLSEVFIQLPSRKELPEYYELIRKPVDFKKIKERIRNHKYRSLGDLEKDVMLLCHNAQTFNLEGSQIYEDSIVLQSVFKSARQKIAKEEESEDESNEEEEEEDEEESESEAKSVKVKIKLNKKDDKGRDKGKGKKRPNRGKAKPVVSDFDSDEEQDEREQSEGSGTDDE
Phospholipase D2, sequence (O14939 whole entry): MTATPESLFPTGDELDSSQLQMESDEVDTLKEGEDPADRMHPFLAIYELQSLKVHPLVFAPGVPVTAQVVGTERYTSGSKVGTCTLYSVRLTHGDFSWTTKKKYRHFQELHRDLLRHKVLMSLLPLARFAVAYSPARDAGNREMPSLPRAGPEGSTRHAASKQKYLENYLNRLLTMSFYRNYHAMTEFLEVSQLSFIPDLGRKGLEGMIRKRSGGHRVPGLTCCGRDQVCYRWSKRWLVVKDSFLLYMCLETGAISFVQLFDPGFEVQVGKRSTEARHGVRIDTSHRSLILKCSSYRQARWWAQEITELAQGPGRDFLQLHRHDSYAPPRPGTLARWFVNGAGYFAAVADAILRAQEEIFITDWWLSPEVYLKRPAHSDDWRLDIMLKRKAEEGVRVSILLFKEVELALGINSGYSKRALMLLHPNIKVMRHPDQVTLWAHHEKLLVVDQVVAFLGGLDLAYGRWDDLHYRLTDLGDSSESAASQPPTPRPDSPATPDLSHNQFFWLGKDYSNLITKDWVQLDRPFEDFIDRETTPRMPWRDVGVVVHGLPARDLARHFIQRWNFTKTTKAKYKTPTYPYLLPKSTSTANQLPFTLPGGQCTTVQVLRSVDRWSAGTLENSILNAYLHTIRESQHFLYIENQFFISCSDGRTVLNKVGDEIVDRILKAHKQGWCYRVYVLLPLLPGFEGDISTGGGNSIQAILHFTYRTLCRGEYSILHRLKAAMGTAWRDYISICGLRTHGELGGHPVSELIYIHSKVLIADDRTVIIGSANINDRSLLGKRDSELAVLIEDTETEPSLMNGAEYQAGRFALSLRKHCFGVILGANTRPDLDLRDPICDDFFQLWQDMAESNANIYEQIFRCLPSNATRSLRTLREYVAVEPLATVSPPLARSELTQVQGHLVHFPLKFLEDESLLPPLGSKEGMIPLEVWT

Compound: C=CC(=O)OCCOCCOCCOCCOC(=O)C=C
- AC50 [1]: 19.2 µM (active)
- AC50 [2]: 92 µM (active)
- AC50 [3]: 25 µM (active)
- EC50 [4]: > 91.2 µM (inactive)
- EC50 [5]: > 91.2 µM (inactive)

Compound: Cc1ccccc1NC(=O)Nc1nc2ccc(S(C)(=O)=O)cc2s1
- IC50 [6]: > 67.5 µM (inactive)
- IC50 [7]: > 67.5 µM (inactive)

Compound: C[C@@H](CN1CCC(n2c(=O)[nH]c3ccc(F)cc32)CC1)NC(=O)c1ccc(Cl)cc1
- IC50 [8]: 0.004 µM (active)
- IC50 [9]: 0.434 µM (active)

Compound: O=C(Cn1nc(-c2ccccc2)ccc1=O)Nc1ccc(NC(=O)c2ccccn2)cc1
- EC50 [10]: 0.00816 µM (active)

Compound: Brc1ccc(CNc2nccc(-c3ccc4c(c3)OCO4)n2)cc1Br
- AC50 [11]: 0.0049 µM (active)
